In patent US8501755B2, “Tetrahydropyridothienopyrimidine compounds and methods of use thereof” (Bayer Intellectual Property GmbH, priority 2006, dated 2013):
pIC50: −log10 of the molar value.

Assays:
Format in all cases: cell-based
[1] = tested on: A431 cells; experiment: In vitro tumor cell proliferation assay (Cell Titer-Glo) in A431 cells; settings: Homo sapiens, A-431, 72 h, A431 human epidermoid carcinoma overexpressing HER1; 72 hours exposure; read-out: IC50, activities in A431 cell lines
Summary of the method: (§1)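 Viability after 72 h drug exposure at 37 °C was read as CellTiter-Glo ATP luminescence, giving IC50. Cells (2.5×10^3/well, RPMI + 10% FBS) were compound-treated one day post-seeding, 0.1% DMSO final: A431 overexpresses HER1, N87 overexpresses HER2 and HER1.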

[2] = tested on: N87; experiment: In vitro tumor cell proliferation assay (Cell Titer-Glo) in N87 cells; settings: N87 human gastric carcinoma overexpressing HER2 and HER1; 72 hours exposure; read-out: IC50, activities in N87 cell lines
Summary of the method: as §1

[3] = tested on: H1975 cells; experiment: In vitro tumor cell proliferation assay (Cell Titer-Glo) in H1975 cells; settings: NCI-H1975; H1975 human NSCLC expressing mutant HER1 (L858R,T790M); 72 hours exposure; read-out: IC50, activities in H 1975 cell lines
Summary of the method: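 After 72 h compound exposure at 37° C (top 10 uM down to 64 pM, 0.1% DMSO), viability of EGFR L858R/T790M-mutant H1975 cells was read as ATP luminescence.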

pIC50 [1] | pIC50 [2] | pIC50 [3] | Compound
> 6.70 | > 6.70 | > 6.70 | CN(C)CC/C=C/C(=O)N1CCc2c(sc3ncnc(Nc4ccc(OCc5ccccn5)c(Cl)c4)c23)C1 [Example 150, 1-[4-[3-chloro-4-(pyridin-2-ylmethoxy)-phenylamino]-5,8-dihydro-6H-9-thia-1,3,7-triaza-fluoren-7-yl}-5-dimethylamino-pent-2-en-1-one]
5.00 to 6.00 | 5.30 to 6.70 | 5.00 to 6.00 | O=C(/C=C/CCO)N1CCc2c(sc3ncnc(Nc4ccc(F)c(Cl)c4)c23)C1 [Example 151, (3E)-5-{4-[(3-chloro-4-fluorophenyl)amino]-5,8-dihydropyrido [4′,3′:4,5]thieno[2,3-d]pyrimidin-7(6H)-yl}-5-oxopent-3-en-1-ol]
5.00 to 6.00 | > 6.70 | 5.00 to 6.00 | O=C(/C=C/CCN1CCCC1)N1CCc2c(sc3ncnc(Nc4ccc(F)c(Cl)c4)c23)C1 [Example 152, N-(3-chloro-4-fluorophenyl)-7-[(2E)-5-pyrrolidin-1-ylpent-2-enoyl]-5,6,7,8-tetrahydropyrido [4′,3′:4,5]thieno[2,3-d]pyrimidin-4-amine]
5.00 to 6.00 | > 6.70 | 5.00 to 6.00 | CN(C)CC/C=C/C(=O)N1CCc2c(sc3ncnc(Nc4ccc(F)c(Cl)c4)c23)C1 [Example 153]
5.00 to 6.00 | > 6.70 | 5.00 to 6.00 | O=C(/C=C/CCN1CCCCC1)N1CCc2c(sc3ncnc(Nc4ccc(F)c(Cl)c4)c23)C1 [Example 154, N-(3-chloro-4-fluorophenyl)-7-[(2E)-5-piperidin-1-ylpent-2-enoyl]-5,6,7,8-tetrahydropyrido [4′,3′:4,5]thieno[2,3-d]pyrimidin-4-amine]
> 6.70 | > 6.70 | > 6.70 | CN(C)C/C=C/C(=O)N1CCc2c(sc3ncnc(Nc4cccc(Br)c4)c23)C1 [Example 160, N-(3-bromophenyl)-7-[(2E)-4-(dimethylamino)but-2-enoyl]-5,6,7,8-tetrahydropyrido [4′,3′:4,5]thieno[2,3-d]pyrimidin-4-amine]
6.00 to 6.70 | > 6.70 | 6.00 to 6.70 | CN(C)C/C=C/C(=O)N1CCc2c(sc3ncnc(Nc4ccccc4)c23)C1 [Example 161, 7-[(2E)-4-(dimethylamino)but-2-enoyl]-N-phenyl-5,6,7,8-tetrahydropyrido [4′,3′:4,5]thieno[2,3-d]pyrimidin-4-amine]
6.00 to 6.70 | > 6.70 | 5.00 to 6.00 | CN(C)C/C=C/C(=O)N1CCc2c(sc3ncnc(Nc4ccc(F)cc4F)c23)C1 [Example 162, N-(2,4-difluorophenyl)-7-[(2E)-4-(dimethylamino)but-enoyl]-5,6,7,8-tetrahydropyrido [4′,3′:4,5]thieno[2,3-d]pyrimidin-4-amine]
6.00 to 6.70 | > 6.70 | 6.00 to 6.70 | CN(C)C/C=C/C(=O)N1CCc2c(sc3ncnc(Nc4ccc(Cl)cc4)c23)C1 [Example 163, N-(4-chlorophenyl)-7-[(2E)-4-(dimethylamino)but-2-enoyl]-5,6,7,8-tetrahydropyrido [4′,3′:4,5]thieno[2,3-d]pyrimidin-4-amine]
6.00 to 6.70 | > 6.70 | 6.00 to 6.70 | CN(C)C/C=C/C(=O)N1CCc2c(sc3ncnc(Nc4cccc(Cl)c4)c23)C1 [Example 164, N-(3-chlorophenyl)-7-[(2E)-4-(dimethylamino)but-2-enoyl]-5,6,7,8-tetrahydropyrido [4′,3′:4,5]thieno[2,3-d]pyrimidin-4-amine]
6.00 to 6.70 | > 6.70 | > 6.70 | CN(C)C/C=C/C(=O)N1CCc2c(sc3ncnc(Nc4ccc(Cl)c(Cl)c4)c23)C1 [Example 165, N-(3,4-dichlorophenyl)-7-{(2E)-4-[dimethylamino]but-2-enoyl}-5,6,7,8-tetrahydropyrido[4′,3′:4,5]thieno[2,3-d]pyrimidin-4-amine]
5.00 to 6.00 | 5.30 to 6.70 | 5.00 to 6.00 | Cc1ccc(F)cc1Nc1ncnc2sc3c(c12)CCN(C(=O)/C=C/CN(C)C)C3 [Example 166, 7-[(2E)-4-(dimethylamino)but-2-enoyl]-N-(5-fluoro-2-methylphenyl)-5,6,7,8-tetrahydropyrido [4′,3′:4,5]thieno[2,3-d]pyrimidin-4-amine]
5.00 to 6.00 | > 6.70 | 5.00 to 6.00 | Cc1cc(C)cc(Nc2ncnc3sc4c(c23)CCN(C(=O)/C=C/CN(C)C)C4)c1 [Example 167, 7-[(2E)-4-(dimethylamino)but-2-enoyl]-N-(3,5-dimethylphenyl)-5,6,7,8-tetrahydropyrido [4′,3′:4,5]thieno[2,3-d]pyrimidin-4-amine]
5.00 to 6.00 | > 6.70 | 5.00 to 6.00 | CCOc1cccc(Nc2ncnc3sc4c(c23)CCN(C(=O)/C=C/CN(C)C)C4)c1 [Example 168, 7-[(2E)-4-(dimethylamino)but-2-enoyl]-N-(3-ethoxyphenyl)-5,6,7,8-tetrahydropyrido [4′,3′:4,5]thieno[2,3-d]pyrimidin-4-amine]
5.00 to 6.00 | > 6.70 | 5.00 to 6.00 | CN(C)C/C=C/C(=O)N1CCc2c(sc3ncnc(NCc4ccccc4)c23)C1 [Example 169, N-benzyl-7-[(2E)-4-(dimethylamino)but-2-enoyl]-5,6,7,8-tetrahydropyrido [4′,3′:4,5]thieno[2,3-d]pyrimidin-4-amine]
6.00 to 6.70 | > 6.70 | 6.00 to 6.70 | CN(C)C/C=C/C(=O)N1CCc2c(sc3ncnc(Nc4ccc(Br)c(Cl)c4)c23)C1 [Example 172, N-(4-bromo-3-chlorophenyl)-7-[(2E)-4-(dimethylamino)but-2-enoyl]-5,6,7,8-tetrahydropyrido [4′,3′:4,5]thieno[2,3-d]pyrimidin-4-amine]
5.00 to 6.00 | > 6.70 | 5.00 to 6.00 | CN(C)C/C=C/C(=O)N1CCc2c(sc3ncnc(Nc4cc(Cl)cc(Cl)c4)c23)C1 [Example 174, N-(3,5-dichlorophenyl)-7-[(2E)-4-(dimethylamino)but-2-enoyl]-5,6,7,8-tetrahydropyrido [4′,3′:4,5]thieno[2,3-d]pyrimidin-4-amine]
5.00 to 6.00 | > 6.70 | 5.00 to 6.00 | CN(C)C/C=C/C(=O)N1CCc2c(sc3ncnc(Nc4ccc(F)cc4)c23)C1 [Example 175, 7-[(2E)-4-(dimethylamino)but-2-enoyl]-N-(4-fluorophenyl)-5,6,7,8-tetrahydropyrido [4′,3′:4,5]thieno[2,3-d]pyrimidin-4-amine]
6.00 to 6.70 | > 6.70 | 6.00 to 6.70 | CN(C)C/C=C/C(=O)N1CCc2c(sc3ncnc(Nc4ccc(F)c(Br)c4)c23)C1 [Example 176, N-(3-bromo-4-fluorophenyl)-7-[(2E)-4-(dimethylamino)but-2-enoyl]-5,6,7,8-tetrahydropyrldo [4′,3′:4,5]thieno[2,3-d]pyrimidin-4-amine]
5.00 to 6.00 | > 6.70 | 5.00 to 6.00 | Cc1cccc(Nc2ncnc3sc4c(c23)CCN(C(=O)/C=C/CN(C)C)C4)c1 [Example 177, 7-[(2E)-4-(dimelhylamino)but-2-enoyl]-N-(3-methylphenyl)-5,6,7,8-tetrahydropyrido [4′,3′:4,5]thieno[2,3-d]pyrimidin-4-amine]
5.00 to 6.00 | > 6.70 | 5.00 to 6.00 | CCc1cccc(Nc2ncnc3sc4c(c23)CCN(C(=O)/C=C/CN(C)C)C4)c1 [Example 178, 7-[(2E)-4-(dimethylamino)but-2-enoyl]-N-(3-ethylphenyl)-5,6,7,8-tetrahydropyrido [4′,3′:4,5]thieno[2,3-d]pyrimidin-4-amine]
5.00 to 6.00 | > 6.70 | 5.00 to 6.00 | COc1cccc(Nc2ncnc3sc4c(c23)CCN(C(=O)/C=C/CN(C)C)C4)c1 [Example 179, 7-[(2E)-4-(dimethylamino)but-2-enoyl]-N-(3-methoxyphenyl)-5,6,7,8-tetrahydropyrido [4′,3′:4,5]thieno[2,3-d]pyrimidin-4-amine]
6.00 to 6.70 | > 6.70 | 5.00 to 6.00 | CN(C)C/C=C/C(=O)N1CCc2c(sc3ncnc(Nc4ccc(Cl)c(F)c4)c23)C1 [Example 180, N-(4-chloro-3-fluorophenyl)-7-[(2E)-4-(dimethylamino)but-2-enoyl]-5,6,7,8-tetrahydropyrido [4′,3′:4,5]thieno[2,3-d]pyrimidin-4-amine]
5.00 to 6.00 | > 6.70 | 5.00 to 6.00 | CN(C)C/C=C/C(=O)N1CCc2c(sc3ncnc(Nc4cc(F)cc(Cl)c4)c23)C1 [Example 181, N-(3-chloro-5-fluorophenyl)-7-[(2E)-4-(dimethylamino)but-2-enoyl]-5,6,7,8-tetrahydropyrido [4′,3′:4,5]thieno[2,3-d]pyrimidin-4-amine]
6.00 to 6.70 | > 6.70 | 5.00 to 6.00 | Cc1cc(Nc2ncnc3sc4c(c23)CCN(C(=O)/C=C/CN(C)C)C4)ccc1F [Example 182, 7-[(2E)-4-(dimethylamino)but-2-enoyl]-N-(4-fluoro-3-methylphenyl)-5,6,7,8-tetrahydropyrido [4′,3′:4,5]thieno[2,3-d]pyrimidin-4-amine]

Compound | pIC50 [1] | pIC50 [2] | pIC50 [3]
CN(C)C/C=C/C(=O)N1CCc2c(sc3ncnc(Nc4ccc(C#N)c(Cl)c4)c23)C1 [Example 173, 2-chloro-4-({7-[(2E)-4-(dimethylamino)but-2-enoyl]-5,6,7,8-tetrahydropyrido [4′,3′:4,5]thieno[2,3-d]pyrimidin-4-yl}amino)benzonitrile] | 5.00 to 6.00 | > 6.70 | 5.00 to 6.00
